Source: PubChem BioAssay AID1259411 (Chemical Carcinogenesis Research Information System (CCRIS), 2018)
Calls of active or inactive are those of the source. The rule behind the calls is not given here.

Tested on: rodent carcinogenicity bioassays, tumor incidence
Assay: CCRIS carcinogenicity studies
Conditions: Dose: 0, Dose: 0
In short: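 NCI-built, expert-reviewed records of carcinogenicity and related test outcomes (mutagenicity, tumor promotion/inhibition) compiled from published and report sources, historical span 1985-2011, not updated.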

SMILES: Oc1cccc(O)c1
- carcinogen call (Species: MOUSE, Strain/Sex: B6C3F1/FEMALE, Route: GAVAGE, 112, 225 MG/KG IN DEIONIZED WATER 5 D/WK FOR 104 WK (STUDY DURATION: 104 WK), 112, 225 MG/KG IN DEIONIZED WATER 5 D/WK FOR 104 WK (STUDY DURATION: 104 WK)): inactive; negative
- carcinogen call (Species: MOUSE, Strain/Sex: B6C3F1/MALE, Route: GAVAGE, 112, 225 MG/KG IN DEIONIZED WATER 5 D/WK FOR 104 WK (STUDY DURATION: 104 WK), 112, 225 MG/KG IN DEIONIZED WATER 5 D/WK FOR 104 WK (STUDY DURATION: 104 WK)): inactive; negative
- carcinogen call (Species: RAT, Strain/Sex: F344/FEMALE, Route: GAVAGE, 50, 100, 150 MG/KG IN DEIONIZED WATER 5 D/WK FOR 104 WK (STUDY DURATION: 104 WK), 50, 100, 150 MG/KG IN DEIONIZED WATER 5 D/WK FOR 104 WK (STUDY DURATION: 104 WK)): inactive; negative
- carcinogen call (Species: RAT, Strain/Sex: F344/MALE, Route: GAVAGE, 112, 225 MG/KG IN DEIONIZED WATER 5 D/WK FOR 104 WK (STUDY DURATION: 104 WK), 112, 225 MG/KG IN DEIONIZED WATER 5 D/WK FOR 104 WK (STUDY DURATION: 104 WK)): inactive; negative

SMILES: CCOc1ccc(NC(=O)CC(C)O)cc1 (centres undefined)
- carcinogen call (Species: MOUSE, Strain/Sex: B6C3F1/FEMALE, Route: ORAL, 0.75, 1.5% IN BASAL DIET FOR 76 WK FOLLOWED BY BASAL DIET ONLY FOR 8 WK (STUDY DURATION: 84 WK), 0.75, 1.5% IN BASAL DIET FOR 76 WK FOLLOWED BY BASAL DIET ONLY FOR 8 WK (STUDY DURATION: 84 WK)): inactive; negative
- carcinogen call (Species: MOUSE, Strain/Sex: B6C3F1/MALE, Route: ORAL, 0.75, 1.5% IN BASAL DIET FOR 76 WK FOLLOWED BY BASAL DIET ONLY FOR 8 WK (STUDY DURATION: 84 WK), 0.75, 1.5% IN BASAL DIET FOR 76 WK FOLLOWED BY BASAL DIET ONLY FOR 8 WK (STUDY DURATION: 84 WK), Tumor Site: Type of Lesion: KIDNEY: RENAL CELL ADENOMA, RENAL CELL CARCINOMA): active; positive

SMILES: O=Cc1ccccc1
- carcinogen call (Species: MOUSE, Strain/Sex: B6C3F1/FEMALE, Route: GAVAGE, 300, 600 MG/KG IN CORN OIL 5 D/WK FOR 103 WK (STUDY DURATION: 104 WK), 300, 600 MG/KG IN CORN OIL 5 D/WK FOR 103 WK (STUDY DURATION: 104 WK), Tumor Site: Type of Lesion: FORESTOMACH: SQUAMOUS PAPILLOMA): active; positive
- carcinogen call (Species: MOUSE, Strain/Sex: B6C3F1/MALE, Route: GAVAGE, 200, 400 MG/KG IN CORN OIL 5 D/WK FOR 104 WK (STUDY DURATION: 105 WK), 200, 400 MG/KG IN CORN OIL 5 D/WK FOR 104 WK (STUDY DURATION: 105 WK), Tumor Site: Type of Lesion: FORESTOMACH: SQUAMOUS PAPILLOMA): active; positive
- carcinogen call (Species: RAT, Strain/Sex: F344/FEMALE, Route: GAVAGE, 200, 400 MG/KG IN CORN OIL 5 D/WK FOR 103 WK (STUDY DURATION: 105 WK), 200, 400 MG/KG IN CORN OIL 5 D/WK FOR 103 WK (STUDY DURATION: 105 WK)): inactive; negative
- carcinogen call (Species: RAT, Strain/Sex: F344/MALE, Route: GAVAGE, 200, 400 MG/KG IN CORN OIL 5 D/WK FOR 103 WK (STUDY DURATION: 105 WK), 200, 400 MG/KG IN CORN OIL 5 D/WK FOR 103 WK (STUDY DURATION: 105 WK)): inactive; negative

SMILES: O[C@H]1[C@H]2O[C@H]2C=C[C@@H]1O
- carcinogen call (Species: MOUSE, Strain/Sex: SWISS/FEMALE, Route: INTRAPERITONEAL, 13.7 UMOL ADMINISTERED AS 3 UNEQUAL DOSES (1/7, 2/7, AND 4/7 OF THE TOTAL DOSE) OVER A 2-WK PERIOD (STUDY DURATION: 2, Tumor Site: Type of Lesion: LUNG: ADENOMA): active; positive
- carcinogen call (Species: MOUSE, Strain/Sex: SWISS/MALE, Route: INTRAPERITONEAL, 13.7 UMOL ADMINISTERED AS 3 UNEQUAL DOSES (1/7, 2/7, AND 4/7 OF THE TOTAL DOSE) OVER A 2-WK PERIOD (STUDY DURATION: 2, Tumor Site: Type of Lesion: LUNG: ADENOMA): active; positive

SMILES: O[C@@H]1[C@@H]2O[C@@H]2c2c(cc3ccc4cccc5c6ccccc6c2c3c45)[C@H]1O
- carcinogen call (Species: MOUSE, Strain/Sex: ICR/FEMALE, Route: INTRAPERITONEAL, 0.7 NMOL TOTAL DOSE INJECTED ON DAY 1 OF LIFE (STUDY DURATION: 35 WK), Tumor Site: Type of Lesion: LIVER: TUMOR, LUNG: TUMOR): active; positive
- carcinogen call (Species: MOUSE, Strain/Sex: ICR/FEMALE, Route: INTRAPERITONEAL, 1 NMOL (TOTAL DOSE) ADMINISTERED IN DOSES OF 1/7, 2/7, AND 4/7 ON DAYS 1, 7, AND 15 OF LIFE, RESPECTIVELY (STUDY DURA, Tumor Site: Type of Lesion: LUNG: TUMOR): active; positive
- carcinogen call (Species: MOUSE, Strain/Sex: ICR/FEMALE, Route: INTRAPERITONEAL, 1 NMOL TOTAL DOSE INJECTED IN DOSES OF 1/7 ON DAY 1, 2/7 ON DAY 8, AND 4/7 ON DAY 15 OF LIFE (STUDY DURATION: 35 WK), Tumor Site: Type of Lesion: LIVER: TUMOR, LUNG: TUMOR): active; positive
- carcinogen call (Species: MOUSE, Strain/Sex: ICR/MALE, Route: INTRAPERITONEAL, 0.7 NMOL TOTAL DOSE INJECTED ON DAY 1 OF LIFE (STUDY DURATION: 35 WK), Tumor Site: Type of Lesion: LUNG: TUMOR): active; positive
- carcinogen call (Species: MOUSE, Strain/Sex: ICR/MALE, Route: INTRAPERITONEAL, 1 NMOL (TOTAL DOSE) ADMINISTERED IN DOSES OF 1/7, 2/7, AND 4/7 ON DAYS 1, 7, AND 15 OF LIFE, RESPECTIVELY (STUDY DURA, Tumor Site: Type of Lesion: LUNG: TUMOR, LIVER: TUMOR): active; positive
- carcinogen call (Species: MOUSE, Strain/Sex: ICR/MALE, Route: INTRAPERITONEAL, 1 NMOL TOTAL DOSE INJECTED IN DOSES OF 1/7 ON DAY 1, 2/7 ON DAY 8, AND 4/7 ON DAY 15 OF LIFE (STUDY DURATION: 35 WK), Tumor Site: Type of Lesion: LIVER: TUMOR, LUNG:TUMOR): active; positive
- carcinogen call (Species: RAT, Strain/Sex: CD-1/FEMALE, Route: INJECTION, 0.2 UMOL IN 0.1 ML DMSO INJECTED BENEATH EACH OF THE 6 NIPPLES ON THE LEFT SIDE (STUDY DURATION: 41 WK), Tumor Site: Type of Lesion: MAMMARY GLAND: TUMOR): active; positive
- carcinogen call (Species: RAT, Strain/Sex: STRAIN-CD/FEMALE, Route: INJECTION, 0.2 UMOL IN 0.1 ML DMSO INJECTED UNDER EACH OF THE 3 LEFT THORACIC NIPPLES FOLLOWED THE NEXT DAY BY SIMILAR TREATMENT, Tumor Site: Type of Lesion: MAMMARY GLAND: TUMOR): active; positive

SMILES: ClC(Br)Br
- carcinogen call (Species: MOUSE, Strain/Sex: B6C3F1/FEMALE, Route: GAVAGE, 50, 100 MG/KG IN CORN OIL 5 D/WK FOR 105 WK (STUDY DURATION: 105 WK), 50, 100 MG/KG IN CORN OIL 5 D/WK FOR 105 WK (STUDY DURATION: 105 WK), Tumor Site: Type of Lesion: LIVER: HEPATOCELLULAR ADENOMA, HEPATOCELLULAR ADENOMA OR CARCINOMA): active; positive
- carcinogen call (Species: MOUSE, Strain/Sex: B6C3F1/MALE, Route: GAVAGE, 50, 100 MG/KG IN CORN OIL 5 D/WK FOR 105 WK (STUDY DURATION: 105 WK), 50, 100 MG/KG IN CORN OIL 5 D/WK FOR 105 WK (STUDY DURATION: 105 WK), Tumor Site: Type of Lesion: LIVER: HEPATOCELLULAR CARCINOMA, HEPATOCELLULAR ADENOMA OR CARCINOMA): equivocal
- carcinogen call (Species: RAT, Strain/Sex: F344/FEMALE, Route: GAVAGE, 40, 80 MG/KG IN CORN OIL 5 D/WK FOR 104 WK (STUDY DURATION: 105 WK), 40, 80 MG/KG IN CORN OIL 5 D/WK FOR 104 WK (STUDY DURATION: 105 WK)): inactive; negative
- carcinogen call (Species: RAT, Strain/Sex: F344/MALE, Route: GAVAGE, 40, 80 MG/KG IN CORN OIL 5 D/WK FOR 104 WK (STUDY DURATION: 105 WK), 40, 80 MG/KG IN CORN OIL 5 D/WK FOR 104 WK (STUDY DURATION: 105 WK)): inactive; negative
